Patent US20220228172A1 (priority 2019, published 2022)
“Also recorded” adds a separate entry of the source.

What was measured:
Type in all cases: cell-based, vesicular stomatitis virus
VSV-P-prot [1] = test system: VSV-P-prot
VSV-L-Prot [2] = test system: VSV-L-Prot
[3] = test system: VSV-GFP-Prot-L (VSV-Prot-Off)
VSV-GP-Luc-IL12-Prot-Off = test system: VSV-GP-Luc-IL12-Prot-Off
VSV-GP-IL12-Prot-Off = test system: VSV-GP-IL12-Prot-Off
[4] = test system: standard recombinant VSV without P-prot control mechanism
VSV-ΔP-RFP = test system: VSV-ΔP-RFP
VSV-P-prot [5] = test system: VSV-P-prot; remark: listed apart in the source
VSV-L-Prot [6] = test system: VSV-L-Prot; remark: listed apart in the source
VSV-GP-TM-IL12-Prot-Off = test system: VSV-GP-TM-IL12-Prot-Off
VSV-GP-IL12 = test system: VSV-GP-IL12

Compound: CC(C)(C)NC(=O)[C@@H]1CN(Cc2cccnc2)CCN1C[C@@H](O)C[C@@H](Cc1ccccc1)C(=O)N[C@H]1c2ccccc2C[C@H]1O [indinavir]
- viral gene expression (GFP signal) of VSV-P-prot (VSV-P-prot [1]): facilitated
- viral replication (plaque formation) of VSV-P-prot (VSV-P-prot [1]): facilitated
- VSV-L-Prot replication in presence of protease inhibitor (VSV-L-Prot [2]): replicates to high titers in its presence

Compound: CC(C)(C)NC(=O)[C@@H]1C[C@@H]2CCCC[C@@H]2CN1C[C@@H](O)[C@H](Cc1ccccc1)NC(=O)[C@H](CC(N)=O)NC(=O)c1ccc2ccccc2n1 [saquinavir]
- inhibition of VSV-GFP-Prot-L replication [3]: even stronger inhibition of virus replication than amprenavir; also recorded: strongest suppression of viral replication
- IL12 expression in supernatant (ELISA) (VSV-GP-Luc-IL12-Prot-Off): inversely correlated
- viral gene expression (GFP signal) of VSV-P-prot (VSV-P-prot [1]): facilitated
- viral replication (plaque formation) of VSV-P-prot (VSV-P-prot [1]): facilitated
- VSV-L-Prot replication in presence of protease inhibitor (VSV-L-Prot [2]): replicates to high titers in its presence
- virus titer of VSV-GP-IL12-Prot-Off with and without linker (VSV-GP-IL12-Prot-Off): dependent on the presence and concentration; also recorded: inversely correlated

Compound: CC(C)CN(C[C@@H](O)[C@H](Cc1ccccc1)NC(=O)O[C@H]1CCOC1)S(=O)(=O)c1ccc(N)cc1 [amprenavir]
- APV dose at which VSV-Prot-OFF activity started to decrease [3]: 30 nM
- amprenavir concentration at which VSV-GFP-Prot-L activity started to decline [3]: 1 µM
- amprenavir concentrations at which VSV-GFP-Prot-L activity was high [3]: 0 to 300 nM
- effect on VSV-GFP-Prot-L activity (GFP expression, plaque assays) [3]: stop of virus activity
- effect of amprenavir on viral replication of standard recombinant VSV [4]: not affected
- RFP signal in VSV-ΔP-RFP infected cells (VSV-ΔP-RFP): only detectable in the presence of P196PR2 and a specific HIV protease inhibitor
- VSV-P-prot activity at doses above the plateau (VSV-P-prot [5]): deteriorated at higher doses
- amprenavir dose at which VSV-P-prot activity started (VSV-P-prot [5]): 100 nM
- viral gene expression (GFP signal) of VSV-P-prot (VSV-P-prot [1]): strong GFP signal within 24 hours in the presence but not in the absence
- viral replication (plaque formation) of VSV-P-prot (VSV-P-prot [1]): protease inhibitor-dependent
- amprenavir dose at which VSV-L-prot activity started (VSV-L-Prot [6]): 100 nM
- amprenavir dose of maximum VSV-L-prot activity (VSV-L-Prot [6]): 30 µM
- VSV-L-Prot replication in presence of protease inhibitor (VSV-L-Prot [2]): replicates to high titers in its presence

Compound: Cc1cccc(C)c1OCC(=O)N[C@@H](Cc1ccccc1)[C@@H](O)C[C@H](Cc1ccccc1)NC(=O)[C@H](C(C)C)N1CCCNC1=O [lopinavir]
- regulation of VSV-P-prot (data not shown) (VSV-P-prot [1]; 10 μM): shown to regulate VSV-P-prot

Compound: COC(=O)N[C@H](C(=O)N[C@@H](Cc1ccccc1)[C@@H](O)CN(Cc1ccc(-c2ccccn2)cc1)NC(=O)[C@@H](NC(=O)OC)C(C)(C)C)C(C)(C)C [atazanavir]
- virus titer of VSV-GP-Luc-IL12-Prot-Off with and without linker (VSV-GP-Luc-IL12-Prot-Off): inversely correlated
- virus titer of VSV-GP-TM-IL12-Prot-Off (-w/ol, -fl) (VSV-GP-TM-IL12-Prot-Off): inversely correlated
- virus titer of VSV-GP-IL12 (VSV-GP-IL12): uneffected
